The values below come from patent publication US20150175712A1, “ANTAGONIST TO AN ENZYME AND/OR A METABOLITE OF THE KYNURENINE PATHWAY” (ImmuSmol SAS, priority 2012, published 2015).

The test system of one series is tumor. The settings on record: Muller et al 2005; cited from earlier work.
The test system of series [1] is CD4 positive helper T cells. Description: Proliferation of helper T cells activated with CD3/CD28 antibodies (CFSE). The class given is cell-based. Particulars: 3HAA 100 μM, 96 hours. How it is done: FIG. 21: Suppression of anti-proliferative properties of 3HAA on helper T cells by a 3HAA monoclonal antibody (1B10). CD4 positive T cells were activated by anti CD3/CD28 antibodies cocktail and incubated for 96 hours with either vehicle, 3HAA at 100 μM or 3HAA (100 μM)+IgG anti 3HAA.
We evaluated the ability of the selected anti 3HAA antibody to block the suppressive effect of 3HAA on helper T cells activated with CD3/CD28 cocktail antibodies. Helper T cells were incubated with or without 3HAA and stained with CFSE (carboxyfluorescein succinimidyl ester). […] The selected anti 3HAA antibody is therefore able to inhibit, in vitro, the suppressive effect of 3HAA, e.g. on helper T cells.

For the next series, the target named is IDO (Homo sapiens, UniProt P14902). The settings on record: Pilotte et al 2012; cited from earlier work.
For series [2] the following is noted: Pilotte et al 2012; cited from earlier work.
The subject of the next series is mastocytoma. Particulars: Pilotte et al 2012; cited from earlier work.

“Also recorded” adds a separate entry of the source.

Chain of IDO (P14902 whole entry, species assumed): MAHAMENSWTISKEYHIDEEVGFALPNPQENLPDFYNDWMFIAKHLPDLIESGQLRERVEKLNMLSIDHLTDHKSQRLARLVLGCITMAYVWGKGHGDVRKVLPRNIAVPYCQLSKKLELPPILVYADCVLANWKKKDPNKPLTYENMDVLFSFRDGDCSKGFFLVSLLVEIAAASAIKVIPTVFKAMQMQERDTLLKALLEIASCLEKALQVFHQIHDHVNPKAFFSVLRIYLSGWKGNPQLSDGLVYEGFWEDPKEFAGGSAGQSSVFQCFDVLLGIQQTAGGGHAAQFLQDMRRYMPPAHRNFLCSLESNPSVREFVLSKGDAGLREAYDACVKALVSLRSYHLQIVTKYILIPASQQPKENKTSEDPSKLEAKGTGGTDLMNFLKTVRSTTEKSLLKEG

For the compound `Cn1cc(C[C@H](N)C(=O)O)c2ccccc21` [Clone 1MT, 1-Methyl Tryptophan], the “anti-tumor benefits when administered alone” value in the series on tumor was “weak”.

Take `Nc1c(O)cccc1C(=O)O` [Clone 3HAA, 3-Hydroxy Anthranilic Acid]: in series [1], the “Effect of 3HAA on proliferation of activated helper T cells” value was “blocked cell proliferation; also recorded: anergy of T cells was induced”.

For `Fc1ccc2c(/C=C/c3nnn[nH]3)c[nH]c2c1` [LM-10, trans-6-Fluoro-3-[2-(1H-tetrazol-5-yl)vinyl]-1H-indole], the IDO inhibition result at IDO was “does not inhibit”. For the same compound, the “solubility compared to 1MT” value in series [2] is listed as “higher”. The “benefits in experimental model of mastocytoma” value with mastocytoma is given as “benefits”.
